Values quoted from earlier work in patent EP1577823B1, “A method for identifying unknown proteins by a two-dimensional separation step and the use of markers” (CENTRE NATIONAL DE LA RECHERCHE SCIENTIFIQUE (CNRS), priority 2004, dated 2005).

Details: pKa value of the positively or negatively charged amino acid side chain

SMILES	pKR
N=C(N)NCCC[C@H](N)C(=O)O [Arginine]	12,5
NCCCC[C@H](N)C(=O)O [Lysine]	10,8
C[C@@H](O)[C@H](N)C(=O)O [Threonine]	13
N[C@@H](Cc1ccc(O)cc1)C(=O)O [Tyrosine]	10,1

Further lines, results first:

pKR	SMILES
8,3	N[C@@H](CS)C(=O)O [Cysteine]
4,3	N[C@@H](CCC(=O)O)C(=O)O [Glutamic acid]
6	N[C@@H](Cc1c[nH]cn1)C(=O)O [Histidine]
13	N[C@@H](CO)C(=O)O [Serine]
